Common to all, as to test: relative viability (nuclei count vs DMSO), 5 days (fraction); higher = more cells survive
Compound in the assay “Adavosertib + Tozasertib”: C=CCn1c(=O)c2cnc(Nc3ccc(N4CCN(C)CC4)cc3)nc2n1-c1cccc(C(C)(C)O)n1 [Adavosertib] + Cc1cc(Nc2cc(N3CCN(C)CC3)nc(Sc3ccc(NC(=O)C4CC4)cc3)n2)n[nH]1 [Tozasertib] (partner 0.1 µM)
Put shortly:
(§1)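 Lung cancer cell lines, seeded in 1536-well plates, were treated the following day by pin tool with a single drug or with five library-drug doses (not always all listed) in √10 steps on top of a fixed anchor-drug dose. Cells were fixed and nuclei stained in one step after 5 days, and nuclei were counted. Relative viability is the nuclei count for treated wells divided by that for vehicle wells, reported as medians of duplicate plates.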

Compound in the assay “Nelarabine + Trametinib”: COc1nc(N)nc2c1ncn2[C@@H]1O[C@H](CO)[C@@H](O)[C@@H]1O [Nelarabine] + CC(=O)Nc1cccc(-n2c(=O)n(C3CC3)c(=O)c3c(Nc4ccc(I)cc4F)n(C)c(=O)c(C)c32)c1 [Trametinib] (partner 0.02 µM)
The method in brief:
as §1

Compound in the assay “Nelarabine + Alpelisib”: COc1nc(N)nc2c1ncn2[C@@H]1O[C@H](CO)[C@@H](O)[C@@H]1O [Nelarabine] + Cc1nc(NC(=O)N2CCC[C@H]2C(N)=O)sc1-c1ccnc(C(C)(C)C(F)(F)F)c1 [Alpelisib] (partner 2 µM)
Put shortly: as §1

Compound in the assay “Nelarabine + Decitabine”: COc1nc(N)nc2c1ncn2[C@@H]1O[C@H](CO)[C@@H](O)[C@@H]1O [Nelarabine] + Nc1ncn([C@H]2C[C@H](O)[C@@H](CO)O2)c(=O)n1 [Decitabine] (partner 2 µM)
The method in brief: as §1

EMC-BAC-2: the relative viability with Adavosertib + Tozasertib (first compound 0.01 µM) was determined as 0.331; with Adavosertib + Tozasertib (first compound 0.03162 µM), 0.318; with Adavosertib + Tozasertib (first compound 0.1 µM), 0.261; in the assay with Adavosertib + Tozasertib (first compound 0.3162 µM), 0.28; in the assay with Nelarabine + Trametinib (first compound 0.01 µM), 0.895; with Nelarabine + Trametinib (first compound 0.03162 µM), 1.02. For the same cell line, the relative viability with Nelarabine + Trametinib (first compound 0.1 µM) was found to be 0.819; in the assay with Nelarabine + Trametinib (first compound 0.3162 µM), 0.821; in the assay with Nelarabine + Trametinib (first compound 1 µM), 0.916; with Nelarabine + Alpelisib (first compound 0.01 µM), 0.794; in the assay with Nelarabine + Alpelisib (first compound 0.03162 µM) it was 0.585; with Nelarabine + Alpelisib (first compound 0.1 µM) it was 0.73. The relative viability turned out to be 0.799 with Nelarabine + Alpelisib (first compound 0.3162 µM); 0.815 in the assay with Nelarabine + Alpelisib (first compound 1 µM); 0.885 with Nelarabine + Decitabine (first compound 0.01 µM); 1.11 in the assay with Nelarabine + Decitabine (first compound 0.03162 µM); 0.912 with Nelarabine + Decitabine (first compound 0.1 µM); 0.864 with Nelarabine + Decitabine (first compound 0.3162 µM). Moreover, the relative viability with Nelarabine + Decitabine (first compound 1 µM) stood at 0.995.

The values above are taken from the supplement of paper PMC10307832.
